Experimental data taken from the NIST ThermoML archive (doi:10.1016/j.jct.2019.02.027).
Where “and” joins values, the source holds several entries; their conditions need not be identical. Equal values may be shown once.

Tests used:
[1] = 298.15 K; 101.33 kPa; Liquid; Vibrating tube method
[2] = xn = mol fraction of the nth substance listed; details: 298.15 K, 100 kPa, Liquid, Vibrating tube method

CCCO [propan-1-ol]
Details | mass density [kg/m3]
[1] | 799.97

CCCO [propan-1-ol] + O=Cc1ccco1
Details | mass density [kg/m3]
[2], x2 = 0 | 799.97

O=Cc1ccco1 [2-furaldehyde] + CCCCCCO
[2]
Details | mass density [kg/m3]
x1 = 0.0958 | 837.47
x1 = 0.1364 | 847.08
x1 = 0.1378 | 847.41
x1 = 0.2218 | 868.43
x1 = 0.2573 | 877.76
x1 = 0.2623 | 879.07
x1 = 0.2983 | 888.83
x1 = 0.3699 | 909.14
x1 = 0.4124 | 921.74
x1 = 0.4947 | 947.51
x1 = 0.4965 | 948.07
x1 = 0.5802 | 976.2
x1 = 0.6437 | 998.96
x1 = 0.7375 | 1035.07
x1 = 0.7661 | 1046.67
x1 = 0.7703 | 1048.36
x1 = 0.847 | 1081.45
x1 = 0.8939 | 1102.9
x1 = 1 | 1155.45

O=Cc1ccco1 [2-furaldehyde]
Details | mass density [kg/m3]
[1] | 1155.45

CCCC(C)O (configuration not stated) [pentan-2-ol] + O=Cc1ccco1
[2]
Details | mass density [kg/m3]
x2 = 0 | 806.48
x2 = 0.092 | 831.24
x2 = 0.1912 | 859.17
x2 = 0.2652 | 880.87
x2 = 0.3627 | 910.83
x2 = 0.4245 | 930.64
x2 = 0.4984 | 955.28
x2 = 0.5417 | 970.2
x2 = 0.6211 | 998.57
x2 = 0.6746 | 1018.53
x2 = 0.7117 | 1032.71
x2 = 0.7692 | 1055.38
x2 = 0.8249 | 1078.15
x2 = 0.879 | 1101.1
x2 = 0.9111 | 1115.13
x2 = 0.9542 | 1134.34

O=Cc1ccco1 [2-furaldehyde] + CC(C)O
[2]
Details | mass density [kg/m3]
x1 = 0.0534 | 803.11
x1 = 0.0877 | 817.2
x1 = 0.1839 | 856.01
x1 = 0.2041 | 864.12
x1 = 0.2517 | 882.87
x1 = 0.2794 | 893.74
x1 = 0.2855 | 896.16
x1 = 0.4063 | 942.61
x1 = 0.5153 | 983.56
x1 = 0.5364 | 991.32
x1 = 0.5702 | 1003.8
x1 = 0.6564 | 1035.2
x1 = 0.7345 | 1063.04
x1 = 0.8252 | 1094.94
x1 = 0.9055 | 1122.98
x1 = 1 | 1155.45

CCCCCO [pentan-1-ol] + O=Cc1ccco1
Details | mass density [kg/m3]
[2], x2 = 0 | 810.9

Cc1ccco1 [2-methylfuran] + CCCC(C)O
[2]
Details | mass density [kg/m3]
x1 = 0.0907 | 813.42
x1 = 0.1322 | 816.51
x1 = 0.1794 | 820.47
x1 = 0.2576 | 827.04
x1 = 0.3029 | 831.05
x1 = 0.4278 | 842.47
x1 = 0.4997 | 849.64
x1 = 0.6108 | 861.2
x1 = 0.6993 | 871.1
x1 = 0.7296 | 874.59
x1 = 0.8143 | 884.9
x1 = 0.8675 | 891.71
x1 = 0.9023 | 896.39
x1 = 0.9441 | 902.21
x1 = 1 | 910.73

CCCCCCO [hexan-1-ol] + Cc1ccco1
Details | mass density [kg/m3]
[2], x2 = 0 | 815.9

Cc1ccco1 [2-methylfuran]
Details | mass density [kg/m3]
[1] | 910.73

CC(C)O [propan-2-ol] + O=Cc1ccco1
Details | mass density [kg/m3]
[2], x2 = 0 | 780.95

CCCCCO [pentan-1-ol]
Details | mass density [kg/m3]
[1] | 810.9

CCC(C)O (configuration not stated) [butan-2-ol] + Cc1ccco1
Details | mass density [kg/m3]
[2], x2 = 0 | 802.88

Cc1ccco1 [2-methylfuran] + CCC(C)O
[2]
Details | mass density [kg/m3]
x1 = 0.0549 | 808.11
x1 = 0.0656 | 809.45
x1 = 0.0952 | 812.22
x1 = 0.1847 | 821.08
x1 = 0.2954 | 831.67
x1 = 0.3763 | 839.84
x1 = 0.4673 | 849.03
x1 = 0.5696 | 859.9
x1 = 0.6998 | 873.97
x1 = 0.7611 | 881.06
x1 = 0.8132 | 887.16
x1 = 0.8548 | 891.9
x1 = 0.8832 | 895.12
x1 = 0.8998 | 897.35
x1 = 0.9091 | 898.45
x1 = 0.9333 | 901.44
x1 = 1 | 910.73

O=Cc1ccco1 [2-furaldehyde] + CCCO
[2]
Details | mass density [kg/m3]
x1 = 0.0847 | 834.01
x1 = 0.134 | 853.46
x1 = 0.2237 | 888
x1 = 0.2415 | 894.81
x1 = 0.2507 | 898.28
x1 = 0.2827 | 910.39
x1 = 0.3632 | 940.23
x1 = 0.4309 | 964.88
x1 = 0.5022 | 990.31
x1 = 0.6164 | 1030.13
x1 = 0.7194 | 1065
x1 = 0.7803 | 1085.14
x1 = 0.8714 | 1114.75
x1 = 0.9006 | 1124.2
x1 = 0.9038 | 1125.2
x1 = 1 | 1155.45

CCCCCCO [hexan-1-ol] + O=Cc1ccco1
Details | mass density [kg/m3]
[2], x2 = 0 | 815.9

CCCCCCO [hexan-1-ol]
Details | mass density [kg/m3]
[1] | 815.9

Cc1ccco1 [2-methylfuran] + CC(C)O
[2]
Details | mass density [kg/m3]
x1 = 0.0267 | 785.02
x1 = 0.0493 | 788.28
x1 = 0.0908 | 794.29
x1 = 0.1257 | 799.31
x1 = 0.179 | 806.65
x1 = 0.2619 | 817.86
x1 = 0.2995 | 822.82
x1 = 0.3935 | 835.05
x1 = 0.537 | 853.23
x1 = 0.6047 | 861.52
x1 = 0.6784 | 870.65
x1 = 0.7217 | 876.04
x1 = 0.8122 | 886.89
x1 = 0.8256 | 888.45
x1 = 0.8759 | 894.66
x1 = 0.9472 | 903.47
x1 = 1 | 910.73

CCCCCO [pentan-1-ol] + Cc1ccco1
Details | mass density [kg/m3]
[2], x2 = 0 | 810.9

O=Cc1ccco1 [2-furaldehyde] + CCCCCO
[2]
Details | mass density [kg/m3]
x1 = 0.0837 | 833.12
x1 = 0.1212 | 843.42
x1 = 0.1906 | 863.01
x1 = 0.2617 | 883.85
x1 = 0.2997 | 895.29
x1 = 0.3856 | 922.11
x1 = 0.4254 | 934.98
x1 = 0.5075 | 962.35
x1 = 0.5396 | 973.38
x1 = 0.6236 | 1003.18
x1 = 0.708 | 1034.59
x1 = 0.7358 | 1045.18
x1 = 0.7671 | 1057.41
x1 = 0.8967 | 1110.25
x1 = 0.9015 | 1112.3
x1 = 1 | 1155.45

CCC(C)O (configuration not stated) [butan-2-ol] + O=Cc1ccco1
Details | mass density [kg/m3]
[2], x2 = 0 | 802.88

O=Cc1ccco1 [2-furaldehyde] + CCC(C)O
[2]
Details | mass density [kg/m3]
x1 = 0.0237 | 810.18
x1 = 0.0782 | 827.38
x1 = 0.1343 | 845.24
x1 = 0.1345 | 845.28
x1 = 0.2696 | 889.52
x1 = 0.2773 | 892.16
x1 = 0.417 | 939.59
x1 = 0.4498 | 951
x1 = 0.535 | 980.92
x1 = 0.6274 | 1014.08
x1 = 0.6673 | 1028.58
x1 = 0.7355 | 1053.74
x1 = 0.803 | 1079.08
x1 = 0.8794 | 1108.12
x1 = 1 | 1155.45

Cc1ccco1 [2-methylfuran] + CCCCCO
[2]
Details | mass density [kg/m3]
x1 = 0.1002 | 819.28
x1 = 0.1263 | 821.43
x1 = 0.1771 | 825.74
x1 = 0.22 | 829.43
x1 = 0.2723 | 834
x1 = 0.3399 | 840.06
x1 = 0.4257 | 848.01
x1 = 0.4599 | 851.26
x1 = 0.5134 | 856.49
x1 = 0.593 | 864.51
x1 = 0.6556 | 871.07
x1 = 0.7006 | 875.92
x1 = 0.7559 | 881.98
x1 = 0.8293 | 890.24
x1 = 0.8836 | 896.44
x1 = 1 | 910.73

CCC(C)O (configuration not stated) [butan-2-ol]
Details | mass density [kg/m3]
[1] | 802.88

CC(C)O [propan-2-ol]
Details | mass density [kg/m3]
[1] | 780.95

O=Cc1ccco1 [2-furaldehyde] + CCCC(C)O
Details | mass density [kg/m3]
[2], x1 = 1 | 1155.45

CCO [ethanol] + O
[2]
Details | mass density [kg/m3]
x1 = 0.0641 | 970.7
x1 = 0.127 | 952.3
x1 = 0.1461 | 950.1
x1 = 0.2437 | 920.1
x1 = 0.387 | 883.5
x1 = 0.4238 | 876.2
x1 = 0.7084 | 825.2
x1 = 1 | 785.5

Cc1ccco1 [2-methylfuran] + CCCCCCO
[2]
Details | mass density
x1 = 0.048 | 819.02 kg/m3
x1 = 0.0765 | 820.93 kg/m3
x1 = 0.1423 | 825.44 kg/m3
x1 = 0.2086 | 830.14 kg/m3
x1 = 0.2804 | 835.45 kg/m3
x1 = 0.3598 | 841.72 kg/m3
x1 = 0.4591 | 850.07 kg/m3
x1 = 0.4916 | 852.91 kg/m3
x1 = 0.5728 | 860.42 kg/m3
x1 = 0.6478 | 867.88 kg/m3
x1 = 0.7472 | 878.45 kg/m3 and 878.33 kg/m3
x1 = 0.7965 | 884.09 kg/m3
x1 = 0.8596 | 891.67 kg/m3
x1 = 0.888 | 895.23 kg/m3
x1 = 0.9411 | 902.08 kg/m3
x1 = 1 | 910.73 kg/m3

CCO [ethanol]
Details | mass density [kg/m3]
[1] | 785.45

CCCC(C)O (configuration not stated) [pentan-2-ol]
Details | mass density [kg/m3]
[1] | 806.48

CCCC(C)O (configuration not stated) [pentan-2-ol] + Cc1ccco1
Details | mass density [kg/m3]
[2], x2 = 0 | 806.48

CC(C)O [propan-2-ol] + Cc1ccco1
Details | mass density [kg/m3]
[2], x2 = 0 | 780.95
